Consider 4 molecules from US20260258471A1, “SYSTEMS AND METHODS FOR MICROCOLONY GROWTH AND MICROBIAL CELL CHARACTERIZATION” (priority 2018, published 2026).

Values after ≈ are worked out from the molar mass of the structure shown.

Format in all cases: cell-based
Assay [1] relates to Escherichia coli. Kind of assay: LD-AST (local diffusion antimicrobial susceptibility testing) on annular-disk microwell strips. The method, then: In one case, an LD-AST test strip was fabricated following the method of Examples 9A and 10, coating different concentrations of Norfloxacin on the annular disks in 0-16 μg range. Three types of strips were prepared: low volume agar type with 80 μL of gel per microwell, medium volume agar type with 150 μL of gel per microwell, and high-volume agar type with 350 μL of gel per microwell. The corresponding gel thickness was respectively 2 mm, 4 mm, and 9 mm. The annular disks were then placed on the gels. The images of the microwell strip, for the case of low volume agar type, is presented in FIGS. 23A and 23B, where 220, 221, 222, and 223 respectively, refer to the drug impregnated annular disc, the drug exposure region, the guiding ring, and the gel. 1 μL of Escherichia coli cell suspension, which had been prepared according to the method of Example 12, was dispensed into the ROI of each LD-AST unit. The strips were incubated at 37° C. and their ROI were imaged by an epi-illuminated microscope having a 5× objective once every hour. These images are presented in FIGS. 24A-24C (low volume gel), 25A-C (medium volume gel), and 26A-C (high volume gel) for incubation times of t=3hours, t=4hours and t=overnight, respectively.
The labels in FIGS. 24A-24C show the mass of the of the antimicrobial agent that was coated on the annular disk during preparation. […] Despite this time variation, an effective antimicrobial agent concentration may be associated with each microwell. This effective antimicrobial agent concentration may be estimated, for example, by modeling the diffusion of the antimicrobial agent, as in FIG. 21A, or, for example, by comparing the results of the LD-AST assay to a reference assay such as broth microdilution assay.
In the case of low volume gels (FIG. 24A-24C), since the antimicrobial agent is expected rapidly and efficiently diffuse throughout the volume of the solid phase growth medium, and since it is expected that the antimicrobial agent diffuses nearly completely from the annular disk, the effective antimicrobial agent concentration may be estimated by dividing the mass of the antimicrobial agent that was provided on the annular disk by the volume of the gel. […] Accordingly, the effective antimicrobial agent concentration for the case low-volume gels of FIGS. 24A-24C was estimated to be 0.25 times of the drug mass that was impregnated on the disk. For instance, the drug concentration at the drug exposure region of the annular disk loaded by 16 μg of Norfloxacin is 4 μg/mL.
Comparing FIGS. 24B and 24C, one can observe (or computationally determine) that for the LD-AST unit labeled by 0.5 μg (having an estimated effective concentration of 0.1 μg/ml), there appears to be a lack of visible growth between 3 and 4 hours of incubation. This halting in growth was verified by imaging the ROIs after overnight culture, as illustrated in FIG. 24C. As a result, the MIC value for this test was estimated as 0.1 μg/mL. […]
FIG. 25A-25C and 26A-26C, respectively, correspond to intermediate volume (gel volume of 150 μL in microwell) and high volume (gel volume of 350 μL in microwell) cases. In these cases, due to the larger temporal variation in concentration during incubation, an effective antimicrobial agent concentration may be determined by correlating the observed results with a reference microdilution assay. […]

For assay [2], the system named is Escherichia coli. Kind of assay: conventional microdilution methodology (reference). The method, then: (§1) Intermediate twofold dilutions of antimicrobial agents in broth (Tryptic soy, and in some cases Brain Heart Infusion). 100 μL of the antimicrobial agent/broth solutions were dispensed into each well of 96-well plates in triplicates. Then, to each well 10 μL of the 5×10^6 CFU/mL cell suspension, which was prepared according to the method of example 5, was added. The plate was sealed and placed in the incubator at 35-37° C. for 16-24 hours for MIC value to be determined.
On the technique in general: In broth dilution the organism is exposed to a series of concentrations in liquid medium.

Assay [3] has as its system Escherichia coli. Kind of assay: Vitek 2 (Biomerieux) reference AST.
The test system of assay [4] is Methicillin-resistant Staphylococcus aureus (MRSA 111 with not strong resistance). Nature of the assay: thin strip type LD-AST on clean suspension and positive blood culture. As for the experimental part:
Methicillin-resistant Staphylococcus aureus (MRSA 111 with not strong resistance) was spiked into 10 mL of whole blood samples at the nominal concentration of 5-10 CFU/ml. Then, an FA Plus aerobic blood culture bottles were inoculated with 10 mL of spiked whole blood and incubated at 37° C. until the culture turns positive. At this time, 30 μL of glycerol stock of the bacterial cell was inoculated in 3 mL of TSB and incubated at 37° C. for 3 hr with shaking at 150 rpm. Based on OD measurements, serial dilutions of the respective bacteria were prepared in TSB at a nominal concentration of 10^5 CFU/mL. An aliquot of the positive blood sample was diluted in TSB by 1000-fold. The two samples were simultaneously tested for susceptibility against Oxacillin with “thin strip” type LD-AST. The results, which are presented in FIG. 30, indicate similar MIC value of 1 μg/mL.

The subject of assay [5] is Staphylococcus aureus. Kind of assay: LD-AST on annular-disk microwell strips.
Procedure: In this case, the cell proliferation at the borderline LD-AST unit, such as the one labeled 12 μg, would be preferably determined by image processing. For example, time-lapse microscopic images can be acquired are aligned and difference images (obtained via subtraction of aligned images) may be processed to detect evidence of growth.
In order to further illustrate the insensitivity of the LD-AST to variations of the antimicrobial agent concentration at the ROIs during the first hour of the assay, the assay was performed in two different protocols; a first direct protocol involving immediate inoculation of the microbial cell suspension after contacting the annular disks with the solid phase growth medium, and a second delayed protocol in which the microbial cell suspension was inoculated 1 hour after contacting the annular disks with the solid phase growth medium.
Blank AST paper disks (Hardy Diagnostics, Z7121) that were 6.35 mm in diameter and 0.75 mm thick, were modified to include a 3 mm hole in the center.
Each paper disk has the capacity to absorb approximately 20 μL of liquid before being saturated. For each antibiotic, a two-fold serial dilution in water was made which included concentrations near its suspected MIC value. The disks were separated into individual wells of a 96-well microplate, and then 20 μL of each antibiotic dilution was pipetted over paper disks ensuring that the entire disk was evenly wetted. After incubation for about 20 minutes at room temperature, the disks in the microplate were dried in vacuum desiccator. Alternatively, individual disk separated in the microplate well could be soaked in an excess volume (30 to 50 μL) of the antibiotic dilution. After incubation, the excess fluid is removed by pipette and dried in a vacuum desiccator. The microplate was then covered with an adhesive cover and stored at 4° C.
Tryptic soy agar blood base (Hardy Diagnostics C5221) was prepared with 1% defibrinated sheep's blood according to the manufacturer. While the agar was still warm (45 to 50° C.), it was pipetted into the wells of an 12×8-well strip plate. For “Thin-gel” case, approximately 50 μL of agar was dispensed into an individual well to give a gel thickness of ~1 mm. For the “mid-thick gel” case, approximately 150 μL of agar was dispensed to gel a gel thickness of ~3 mm. Finally, for the “thick gel” case, approximately 350 μL of agar was dispensed to gel a gel thickness of ~7 mm. The agar gels were then cooled to room temperature to solidify, and then either used immediately or stored at 4° C. with an adhesive cover over the wells to prevent gel drying. […]
For assay [6], the system named is Staphylococcus aureus. Nature of the assay: Vitek 2 reference AST.
The test system of assay [7] is Staphylococcus aureus. Nature of the assay: broth microdilution AST according to Example 11. The method, then:
as §1

The test system of assay [8] is S. aureus. Kind of assay: antimicrobial dilution pipetted directly onto thin-type gel microwells (no annular disk). The note with it: Staphylococcus aureus; 20 μL of two-fold dilutions pipetted onto thin-type microwells; 37° C. until control colonies visible. As for the experimental part: In order to verify the observed difference between the MIC for the low-volume gel and the typical MIC values reported by EUCAST for S. aureus and Vancomycin was not caused by the geometry of the annular disk and its corresponding diffusion dynamics, the following experiment was performed. A two-fold serial dilution of the target antimicrobial agent was prepared in water. Then 20 μL of each dilution was pipetted onto the surface of “thin-type” microwells that were prepared according to the method of Example 10. After about 10 minutes, the antimicrobial agent solution had diffused into top of the gel. 1 μL of a microbial cell suspension was then added and together they were incubated at 37° C. until the microbial colonies at the control well (zero antimicrobial agent concentration) were visible. The MIC found in this manner was 3 μg/mL.

Assay [9] has as its system Candida albicans (ATCC 90028). Nature of the assay: LD-AST against fungal cells. The following applies: thin strip LD-AST; images at 3 and 4 hours, verified overnight. The method, then: A series of LD-AST units having different levels of Amphotoricin B were prepared and tested against Candida albicans (ATCC 90028). […] Therefore, the MIC was determined to be 2 μg/mL. The conclusion of growth at the LD-AST unit corresponding to 1 μg/mL, though not easily noticed in FIG. 29 by visual inspection of t=3 and 4 incubation images, was verified by referring to the overnight incubation row in the figure.
To align imaging data acquired at different time points (2, 3, 4 and 5 hours after seeding), 2D-2D registration (only translation and rotation are permitted) with rigid transformation constrains was performed. The corresponding intensity feature points between the previous time point (tn-1 or tn-2) image, so-called reference, and each further image, so-called floating image, were automatically identified using the key-point detector SURF and used for aligning imaging date with respect to the reference data. Intensity features present at the reference image were classified as background while intensity features appearing on further images (cells/bugs) were classified as foreground. The position of given individual microcolonies have been marked in consecutive images. Setting the background allows enhanced detection of microcolonies and their growth.

In the case of `CCn1cc(C(=O)O)c(=O)c2cc(F)c(N3CCNCC3)cc21` [Norfloxacin], the MIC was 0.1 µg/mL (≈ 0.313 µM) in [1] (Escherichia coli, low volume gel strip, no growth between 3 and 4 hours of incubation, verified overnight, read-out: MIC value (estimated effective concentration)); at most 0.5 µg/mL in assay [3] (Escherichia coli, read-out: MIC value reported by Vitek 2). Further, the “classification of MIC per CLSI/EUCAST interpretation standards” value in assay [1] (LD-AST MIC, low volume gel) was “S”. Moreover, the “antimicrobial mass label of the microwell at which microbial growth halts” value in assay [1] (high volume (gel volume of 350 μL in microwell)) and in [1] (intermediate volume (gel volume of 150 μL in microwell)) was 1 µg in each case. For the same molecule, the “antimicrobial mass coated on annular disk of the LD-AST unit showing lack of visible growth” value in [1] (low volume gel, between 3 and 4 hours of incubation) was determined as 0.5 µg. The same molecule showed an MIC value in assay [2] of 0.1 µg/mL (≈ 0.313 µM). Moreover, in [3], the “susceptibility category reported by Vitek 2” value was “S”.
Regarding `Cc1onc(-c2ccccc2)c1C(=O)N[C@@H]1C(=O)N2[C@@H]1SC(C)(C)[C@@H]2C(=O)O` [Oxacillin], in assay [4] (Staphylococcus aureus, MRSA, clean cell suspension in TSB, nominal 10^5 CFU/mL), the MIC was found to be 1 µg/mL (≈ 2.49 µM). The MIC value in assay [4] (positive blood culture diluted in TSB by 1000-fold) came to 1 µg/mL (≈ 2.49 µM).
Take `CN[C@H](CC(C)C)C(=O)N[C@H]1C(=O)N[C@@H](CC(N)=O)C(=O)N[C@H]2C(=O)N[C@H]3C(=O)N[C@H](C(=O)N[C@H](C(=O)O)c4cc(O)cc(O)c4-c4cc3ccc4O)[C@H](O)c3ccc(c(Cl)c3)Oc3cc2cc(c3O[C@@H]2O[C@H](CO)[C@@H](O)[C@H](O)[C@H]2O[C@H]2C[C@](C)(N)[C@H](O)[C@H](C)O2)Oc2ccc(cc2Cl)[C@H]1O` [Vancomycin]: the “classification of MIC per CLSI interpretation standards” value in [5] (LD-AST MIC, thin type) is reported as “I”. Besides, in assay [5] (mid-thick strip, 4 hours after inoculation (FIG. 28)), the “MIC, direct protocol versus delayed (1 hour) inoculation protocol” value is listed as “equal”. Besides, the “growth at borderline LD-AST unit (difference image of time-lapse images)” value in assay [5] (mid-thick type, unit labeled 12 μg, verified by overnight incubation) is “continued to grow”. In [5] (thin type LD-AST unit (FIG. 27A), 3 and 4 hours incubation), this molecule had an MIC value of 3 µg/mL (≈ 2.07 µM). Moreover, the “susceptibility category from Vitek 2” value in [6] is recorded as “S”. For the same molecule, the MIC in assay [6] (Staphylococcus aureus, read-out: MIC value from Vitek 2) stood at 1 µg/mL (≈ 0.69 µM); in [7] (Staphylococcus aureus, broth microdilution, Example 11), 1.5 µg/mL (≈ 1.04 µM); in assay [8], 3 µg/mL (≈ 2.07 µM). Moreover, the “classification of MIC according to CLSI” value in assay [7] (broth microdilution MIC) was “S”.
Amphotoricin B yielded an MIC in [9] of 2 µg/mL.
